Where “and” joins values, the source holds several entries; their conditions need not be identical. Equal entries are not always repeated.

The source of these data is US12139481B2, “Compositions comprising macrocycle derivatives incorporating bridged macrocycles and methods of producing and using same” (Southwestern Oklahoma State University, priority 2015, dated 2024).

In assay [1] the test system is Cryptococcus neoformans ATCC 90113. The assay is described as follows: Antimicrobial microdilution assay against Cryptococcus neoformans (modified CLSI/NCCLS, optical density). The note with it: for X more potent than Amphotericin B: C. neoformans, ratio of molar IC50 to Amphotericin B; for C. neoformans IC50 / IC50: in vitro, C. neoformans ATCC 90113; for IC50: read-out: C. neoformans IC50 (mol/L). In kind it is cell-based. The gist of the method: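 Broth microdilution (modified CLSI) in RPMI pH 6.0, samples serially diluted in 20% DMSO/saline and tested in duplicate, growth followed by OD630 before and after incubation. MFC is the lowest concentration giving no growth when 5 μL from clear wells is plated on agar.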

The test system of assay [2] is L. donovani promastigotes. The assay is described as follows: Antileishmanial Alamar Blue assay on promastigotes. In kind it is cell-based, Leishmania donovani. The method, boiled down:
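L. donovani promastigotes in RPMI 1640 with 10% FCS, from 3-day culture, were set at 5×10^5/mL and exposed to compound (50-3.1 μg/mL) for 48 hours at 26° C. Growth read by Alamar Blue fluorescence (ex 544/em 590 nm); IC50 from percent growth versus concentration.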

The subject of a further assay is C. krusei ATCC 6258. The assay is described as follows: Antifungal broth dilution assay against C. krusei (modified CLSI). Format: cell-based, Candida krusei. The method, boiled down:
(§1)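 Modified CLSI broth microdilution with OD monitoring before and after incubation at 35 °C: Candida in RPMI 1640/MOPS pH 6.0, 1.5×10^3 CFU/ml, 46-50 h; Staphylococcus in cation-adjusted Mueller-Hinton pH 7.3, 5.0×10^5 CFU/ml, 16-20 h. IC50 from curve fit; MIC is the lowest concentration with no growth; MFC/MBC from subculture.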

Assay [3] deals with Staphylococcus aureus ATCC 29213. The assay is described as follows: Antibacterial broth dilution assay against S. aureus (modified CLSI). In kind it is cell-based. The method, boiled down: as §1
Assay [4] relates to methicillin-resistant S. aureus ATCC 33591 (MRS). The assay is described as follows: Antibacterial broth dilution assay against MRSA (modified CLSI). In kind it is cell-based, Staphylococcus aureus. How it is done: General Experimental Procedures. All organisms were obtained from the American Type Culture Collection (Manassas, VA) and include the fungi Candida albicans ATCC 90028, C. glabrata ATCC 90030, C. krusei ATCC 6258, and Cryptococcus neoformans ATCC 90113, and the bacteria Staphylococcus aureus ATCC 29213 and methicillin-resistant S. aureus ATCC 33591 (MRS). All organisms were tested using modified versions of the CLSI (formerly NCCLS) methods. For all organisms, optical density was used to monitor growth (NCCLS, Reference Method for Broth Dilution Antifungal Susceptibility Testing of Yeasts; Approved Standard M27-A2. National Committee on Clinical Laboratory Standards, 2002 22 (15); and NCCLS, Methods for Dilution Antimicrobial Susceptibility Tests for Bacteria that Grow Aerobically; Approved Standard, Seventh Edition M7-A7. National Committee on Clinical Laboratory Standards, 2006. 26(2)).
Samples (dissolved in DMSO) were serially-diluted in 20% DMSO/saline and transferred (10 μL) in duplicate to 96 well flat bottom microplates. Inocula were prepared by correcting the OD630 of microbe suspensions in incubation broth [RPMI 1640/0.2% dextrose/0.03% glutamine/MOPS @ pH 6.0 (Cellgro) for Candida spp., Sabouraud Dextrose for C. neoformans, and cation-adjusted Mueller-Hinton (Difco) @ pH 7.3 for Staphylococcus spp. to afford an assay volume of […] and final target inocula of: Candida spp. and C. neoformans: 1.5×10^3, and Staphylococcus spp.: 5.0×10^5 CFU/ml. Final sample test concentrations were 1/100th the DMSO stock concentration. […] All organisms were read at either 530 nm using the Biotek Powerwave XS plate reader (Bio-Tek Instruments, Vermont) prior to and after incubation: Candida spp. at 35° C. for 46-50 h, Staphylococcus spp. at 35° C. for 16-20 h, and C. neoformans at 35° C. for 70-74 h. IC50s (concentrations that afford 50% inhibition relative to controls) were calculated using XLfit 4.2 software (IDBS, Alameda, CA) using fit model 201. The MIC is defined as the lowest test concentration that allows no detectable growth. Minimum fungicidal or bactericidal concentrations were determined by removing 5 μl from each clear (or blue) well, transferring to fresh media, and incubating as previously mentioned. The MFC/MBC is defined as the lowest test concentration that kills the organism (allows no growth).
Primary Analysis. Samples were tested in duplicate at one test concentration (50 μg/mL), and percent inhibitions were calculated relative to blank and growth controls. Samples showing 50% inhibition in at least one test organism were selected for dose response (Secondary) studies.
Secondary Analysis. Extracts from the Primary Assay, and first-run pure compounds and column fractions were tested in duplicate at 3 test concentrations (5-fold dilutions). Samples dissolved to 20 mg/mL in DMSO were tested at 200, 40, and 8 μg/mL. Samples dissolved to 2 mg/mL in DMSO were tested at 20, 4, and 0.8 μg/mL.

In assay [5] the test system is S. mansoni newly transformed schistosomula (NTS). The assay can be described thus: In vitro testing on Schistosoma mansoni newly transformed schistosomula (NTS), viability score. In kind it is cell-based. The settings on record: NTS S. mansoni, 33 μM, 72 h. How it is done: Assays were prepared according to the laboratory SOP for the lab of Dr. Jennifer Keiser (Swiss Tropical and Public Health Institute, Basel). Harvested S. mansoni cercariae (Liberian strain) obtained from infected Biomphalaria glabrata snails were mechanically transformed into newly transformed schistosomula (NTS) following standard procedures. Briefly, snails were placed under light in the morning to stimulate cercarial shedding. The cercarial suspension was collected, cooled for 30 minutes, and then vigorously pipetted (30×) and vortexed (3 minutes). The suspension was then placed in the incubator (37° C. and 5% CO2) for 30 minutes, and the vortexing and pipetting steps were repeated. The transformation was complete at this point, and the tails were separated from the heads by rinsing three times with cold HBSS. NTS were then incubated overnight in culture medium overnight and used the next day.
The original stock compounds (which were not already dissolved) were dissolved in dimethyl sulfoxide (DMSO) to a concentration of 10 mM. 100 NTS were placed in each well of a 96-well plate with culture medium, and the test compound for a final well volume of 250 μl. […] NTS incubated with no more than 1% DMSO served as control. NTS were kept in an incubator at 37° C. and 5% CO2 for up to 72 hours. After 72 hours, the condition of the NTS was microscopically evaluated using a scale from 3 (normal activity and no tegument alteration) to 0 (dead, completely granulated).

The mark [6] stands for this setting: in vitro, converted with molecular weight.
The mark [7] stands for this setting: molar IC50 ratio versus ciprofloxacen.

Consider m-SB-cyclens HCl salt [OB25B], for which the “X more potent than Amphotericin B” value in assay [1] is 0.74; with C. krusei ATCC 6258 (C. krusei, ratio of molar IC50 to amphotericin B), 0.21. In addition, the “C. neoformans IC50” value in assay [1] came to 0.300 µg/mL. The IC50 in assay [1] worked out at 324 nM; in assay [2] (promastigotes, 48 hours, Alamar Blue, read-out: L. donavani IC50), 12.4 µM; in the assay with C. krusei ATCC 6258 (in vitro, read-out: C. krusei IC50 (mol/L)), 7.05 µM; in assay [3] (setting [6]) it was 6.41 µM; in assay [4] (setting [6]), 5.88 µM. Besides, in assay [2] (L. donovani, ratio of molar IC50 to Pentamidine), the “X more potent than Pentamidine” value stood at 0.43. For the same molecule, the “L. donovani IC50” value in assay [2] (promastigotes, 48 hours, Alamar Blue) came to 11.45 µg/mL. In addition, in the assay with C. krusei ATCC 6258 (in vitro), the “C. krusei IC50” value was 6.530 µg/mL. For the same molecule, the “S. aureus IC50” value in assay [3] (in vitro) was 5.940 µg/mL. Besides, the “X more potent than ciprofloxacen” value in assay [3] (setting [7]) and in assay [4] (setting [7]) was 0.04 throughout. In addition, the “MRSa IC50” value in assay [4] (in vitro) turned out to be 5.450 µg/mL.
As for `CC(=O)[O-].CC(=O)[O-].CC(=O)[O-].CN1CCCN2CCN(CCCN(Cc3cc(CN4CCCN5CCN(C)CCCN(CC5)CC4)cc(CN4CCCN5CCN(C)CCCN(CC5)CC4)c3)CC2)CC1.F[P-](F)(F)(F)(F)F.F[P-](F)(F)(F)(F)F.F[P-](F)(F)(F)(F)F.[Cu+2].[Cu+2].[Cu+2]` [BNS025], the “Effect at 72 h (%)” value in assay [5] amounted to 18.02%.
For `CC(=O)[O-].CC(=O)[O-].CN1CCCN2CCN(CCCN(Cc3cccc(CN4CCCN5CCN(C)CCCN(CC5)CC4)c3)CC2)CC1.F[P-](F)(F)(F)(F)F.F[P-](F)(F)(F)(F)F.F[P-](F)(F)(F)(F)F.F[P-](F)(F)(F)(F)F.[Co+3].[Co+3]` [CDG010, [Co2(m-CB-Cyclams)(OAc)2][PF6]4], in assay [1], the “X more potent than Amphotericin B” value is 0.35, the “C. neoformans IC50” value came to 0.960 µg/mL and the IC50 stood at 686 nM. The “Effect at 72 h (%)” value in assay [5] amounted to 11.71%.
With `c1c(CN2CCNCCN3CCN(CC3)CC2)cc(CN2CCNCCN3CCN(CC3)CC2)cc1CN1CCNCCN2CCN(CC2)CC1` [CDG029], the “Effect at 72 h (%)” value in assay [5] came out at 24.32%.
Take `CC(=O)[O-].CC(=O)[O-].CN1CCN2CCN(CC1)CCN(Cc1cccc(CN3CCN4CCN(C)CCN(CC4)CC3)c1)CC2.F[P-](F)(F)(F)(F)F.F[P-](F)(F)(F)(F)F.[Cu+2].[Cu+2]` [DJC06A, [Cu2(m-CB-Cyclens)(OAc)2][PF6]2]: in assay [1], the “X more potent than Amphotericin B” value amounted to 0.04, the “C. neoformans IC50” value was 6.710 µg/mL and the IC50 is 6320 nM. Besides, in assay [5], the “Effect at 72 h (%)” value amounted to 5.41%.
On to `CC(=O)[O-].CN1CCCN2CCN(CCCN(Cc3ccccc3)CC2)CC1.F[P-](F)(F)(F)(F)F.[Co+2]` [TRH016], for which the “Effect at 72 h (%)” value in assay [5] is 11.71%.
For the molecule `CC(=O)[O-].CC(=O)[O-].F[P-](F)(F)(F)(F)F.F[P-](F)(F)(F)(F)F.[Cu+2].[Cu+2].c1cc(CN2CCNCCN3CCN(CC3)CC2)ccc1CN1CCNCCN2CCN(CC2)CC1` [OB28, [Cu2(p-SB-Cyclens)(OAc)2][PF6]2], in assay [1], the “X more potent than Amphotericin B” value amounted to 0.05, the “C. neoformans IC50” value amounted to 5.210 µg/mL and the IC50 was 5040 nM. The “Effect at 72 h (%)” value in assay [5] worked out at 0.00%.
In the same order, the values of “[Zn3(tris-SB-Cyclens)(OAc)3][PF6]3•0.5NH4PF6 [CDG023]” are 0.29, 1.310 µg/mL, 819 nM and 18.02%.
Regarding [Cu2(m-SB-Cyclams)(OAc)2][PF6]2 [KS24], in assay [1], the “X more potent than Amphotericin B” value stood at 0.08, the “C. neoformans IC50” value is 3.180 µg/mL and the IC50 stood at 3080 nM. Besides, the “Effect at 72 h (%)” value in assay [5] was 18.02%.
In the same order, the values of `CC(=O)[O-].CC(=O)[O-].F[P-](F)(F)(F)(F)F.F[P-](F)(F)(F)(F)F.O.[Ni+2].[Ni+2].c1cc(CN2CCNCCN3CCN(CC3)CC2)ccc1CN1CCNCCN2CCN(CC2)CC1` [OB29, [Ni2(p-SB-Cyclens)(OAc)2][PF6]2•H2O] are 0.31, ≤ 0.800 µg/mL, 768 nM and 5.41%.
For `CC(=O)[O-].CC(=O)[O-].CC(=O)[O-].CN1CCN2CCN(CC1)CCN(Cc1cc(CN3CCN4CCN(C)CCN(CC4)CC3)cc(CN3CCN4CCN(C)CCN(CC4)CC3)c1)CC2.F[P-](F)(F)(F)(F)F.F[P-](F)(F)(F)(F)F.F[P-](F)(F)(F)(F)F.O.O.O.O.O.O.[Zn+2].[Zn+2].[Zn+2]` [BNS22, [Zn3(tris-CB-Cyclens)(OAc)3][PF6]3•6H2O], in assay [1], the “X more potent than Amphotericin B” value is 0.12 and the “C. neoformans IC50” value stood at 3.410 µg/mL. Moreover, in assay [5], the “Effect at 72 h (%)” value is 11.71%.
With `F[P-](F)(F)(F)(F)F.F[P-](F)(F)(F)(F)F.F[P-](F)(F)(F)(F)F.F[P-](F)(F)(F)(F)F.F[P-](F)(F)(F)(F)F.F[P-](F)(F)(F)(F)F.[Ni+2].[Ni+2].[Ni+2].c1c(CN2CCCN3CCN(CCCNCC2)CC3)cc(CN2CCCN3CCN(CCCNCC2)CC3)cc1CN1CCCN2CCN(CCCNCC1)CC2` [CDG024, [Ni3(tris-SB-Cyclams)][PF6]6], in assay [1], the “X more potent than Amphotericin B” value was 0.18, the “C. neoformans IC50” value amounted to 2.440 µg/mL and the IC50 turned out to be 1330 nM. Further, the “Effect at 72 h (%)” value in assay [5] is reported as 5.41%.
Consider `CN1CCN2CCN(C)CCN(CC1)CC2.F[P-](F)(F)(F)(F)F.[Cl-].[Cl-].[Mn+3]` [CNV06, [Mn(Bcyclen)Cl2]PF6], for which, in assay [1], the “X more potent than Amphotericin B” value was 0.02; the “C. neoformans IC50” value was 6.390 µg/mL and 5.579 µg/mL; the IC50 was 12800 nM and 11200 nM. The “Effect at 72 h (%)” value in assay [5] is recorded as 0.00%.
Regarding `c1c(CN2CCCN3CCN(CCCNCC2)CC3)cc(CN2CCCN3CCN(CCCNCC2)CC3)cc1CN1CCCN2CCN(CCCNCC1)CC2` [CDG019], in assay [5], the “Effect at 72 h (%)” value is recorded as 0.00%.
